According to patent publication US20210371804A1, “Videomicroscopy of contractile cell cultures and cell culture methods using same” (Institut de Cardiologie de Montréal, priority 2020, published 2021):

Test system: neonatal cardiomyocytes
Experiment: Videomicroscopy of contraction (composite signal ΔS) of neonatal cardiomyocyte monolayers
Assay type: cell-based, rat
Conditions: 1 minute after injection
Method: All animal-handling procedures were concordant with the Canadian Council on Animal Care guidelines and were approved by the institutional Animal Research Ethics Committee. Isolation was performed according to the protocol of the neonatal cardiomyocyte isolation kit from Worthington. In summary, one to three days old rats (Sprague-Dawley, Charles River) were sacrificed by decapitation. Beating heart were removed from the rats and immediately put in cold Ca^2+ and Mg^2+-free Hank's Balanced Salt Solution. Ventricular muscle was selected by excision and tissue was minced on ice into 1-3 mm^3 pieces. The mixture was subjected to purified enzymatic digestion (trypsin and collagenase). Isolated cells (enriched cardiomyocytes) were counted and seeded at a density of 10^6 cells/mL in the seeding area of the membrane pre-coated with 0.2% porcine-derived gelatin (G1890, Sigma) and 0.00125% fibronectin solution (F1141, Sigma). Cells were grown for 24 hours in DMEM (319-050-CL, Wisent) with 5% fetal bovine serum (FBS, SH30396.03, Fisher Scientic Co. Ltd) and 1% penicillin/streptomycin (450-201-EL, Wisent). Cardiomyocytes were then FBS starved with 1% penicillin/streptomycin in DMEM 24 h prior to the experiments. Acute effects of the β-adrenergic agonist, isoproterenol (ISO, 16504, Sigma-Aldrich) was studied by videomicroscopy with final concentration of 100 nM at 1 minute after injection. […]

SMILES: CC(C)NCC(O)c1ccc(O)c(O)c1 (centres unmarked) [ISO, isoproterenol]
- slope of the linear regression of <RatioC/R> as a function of <T> (ISO 100 nM, 0.146 for CTL, <T> and group effects p<0.001): 0.490
- period of activity (ISO final concentration 100 nM, vs. 1.9±2.4 s in CTL, p<0.05): 0.9 ± 0.6 s
